The values that follow come from US20260216174A1, “TREATMENT OF ER+ BREAST CANCER COMPRISING HOMOLOGOUS RECOMBINATION DEFICIENCY USING PARG INHIBITOR” (IDEAYA BIOSCIENCES, INC., priority 2023, published 2026).

Holding throughout (type): cell-based
For one assay, the system named is HCC1954. The experiment in a line: Cellular antiproliferative response, Assay 2 (nuclear dye intensity). Particulars: Homo sapiens, 240 h; HCC1954, HR mutant BRCA1, Assay 2, 10-day incubation; read-out: Log10 (IC50) (converted). The method, then:
Compound A was tested in a cell line panel. Cell lines were grown in RPMI 1640, 10% FBS, 2 mM L-alanyl-L-glutamine, 1 mM Na pyruvate, or a special medium. Cells were seeded into 384-well plates and incubated in a humidified atmosphere of 5% CO2 at 37° C. The following day, Compound A was added by serial dilution in half-log steps from the highest test concentration of 30 μM and assayed over ten concentrations. A time zero untreated cell plate was also generated. At seven days post-seeding, the growth media were replaced, and the plates were re-dosed with the test compound. After a 10-day incubation period, cells were fixed and stained with a fluorescent nuclear dye. Automated fluorescence microscopy was carried out using a Molecular Devices ImageXpress Micro XL high-content imager, and images were collected with a 4× objective. 16-bit TIFF images were acquired and analyzed with MetaXpress 5.1.0.41 software.
Cell proliferation effects of Compound A was measured using the fluorescent intensity of the incorporated nuclear dye as a percent of the control (POC), where POC=(Ix/I0)×100. Ix=nuclear intensity at concentration x and I0=average nuclear intensity of the untreated vehicle wells. Cellular IC50 was calculated using nonlinear regression to a sigmoidal single-site dose response model. Curve fitting, calculations, and report generation was performed using a custom data reduction engine and MathIQ based software (AIM).

Another assay deals with Hs 578T. The experiment in a line: Cellular antiproliferative response, Assay 1 (nuclear counts). Particulars: Homo sapiens, Wild Type, Assay 1, 5 population doublings, read-out: Log10 (IC50) (converted). The method, then:
(§1) Compound A was tested in a cell line panel. Cell lines were obtained from several different sources such as the American Type Culture Collection, Korean Cell Line Bank and Japanese Collection of Research Bioresources Cell Bank and cultured in the media as recommended by the source cell banks. All cell lines were grown at 37° C. at 5% CO2 and were passaged once or twice weekly with 0.25% Trypsin-EDTA (Fisher Scientific #25200056) and re-plated in 75 cm^2 culture flasks (Corning #3814).
(§2) The cell lines were plated in 96 well plates (Corning #3904) at density of 1000 cells/well. DMSO dissolved Compound A was then added using the TECAN liquid dispenser to generate a 9-point dose curve with a 3-fold dilution and 10 μM starting, top concentration. After 5 population doublings, the cell lines were treated with 5 μM of Vybrant DyeCycle Green (Life Technologies #V35004), incubated for 60 minutes and imaged using the Incucyte® S3 system to determine the nuclear counts. For all cell lines, the nuclear counts were normalized to the DMSO treated wells and the IC50 was determined using the standard four parametric dose response equation in GraphPad Prism Software.

The next assay deals with BT-20. The assay is described as above. Particulars: Homo sapiens; BT-20, Wild Type, Assay 1, 5 population doublings; read-out: Log10 (IC50) (converted). The method, then: as §1, §2
For another assay, the system named is MDA-MB-231. The description is as above. Particulars: Homo sapiens; MDA-MB-231, Wild Type, Assay 1, 5 population doublings; read-out: Log10 (IC50) (converted). The method, then: as §1, §2
Another assay relates to KPL-1. The assay is described as above. Particulars: KPL-1, Wild Type, Assay 1, 5 population doublings; read-out: Log10 (IC50) (converted). The method, then: as §1, §2
The next assay relates to BT-549. The description is as above. Particulars: Homo sapiens; BT-549, Wild Type, Assay 1, 5 population doublings; read-out: Log10 (IC50) (converted). The method, then: as §1, §2
In a further assay the test system is MDA-MB-415. Described as above. The settings on record: Homo sapiens; MDA-MB-415, Wild Type, Assay 1, 5 population doublings; read-out: Log10 (IC50) (converted). The method, then:
as §1, §2

In another assay the test system is MCF7. Described as above. Particulars: Homo sapiens; MCF7, Wild Type, Assay 1, 5 population doublings; read-out: Log10 (IC50) (converted). The method, then:
as §1, §2

The test system of a further assay is SK-BR-3. The assay is described as above. The settings on record: Homo sapiens; SK-BR-3, Wild Type, Assay 1, 5 population doublings; read-out: Log10 (IC50) (converted). The method, then: as §1, §2
For a further assay, the system named is CAMA-1. Described as above. Particulars: Homo sapiens; CAMA-1, Wild Type, Assay 1, 5 population doublings; read-out: Log10 (IC50) (converted). The method, then:
as §1, §2

The subject of the next assay is MDA-MB-453. Described as above. The settings on record: Homo sapiens; MDA-MB-453, Wild Type, Assay 1, 5 population doublings; read-out: Log10 (IC50) (converted). The method, then:
as §1, §2

The test system of a further assay is T-47D. The description is as above. The settings on record: Homo sapiens, T47D, Wild Type, Assay 1, 5 population doublings, read-out: Log10 (IC50) (converted). The method, then:
as §1, §2

By IC50 is commonly meant the concentration at which inhibition is half-maximal. As for `C[C@H]1CN(c2cc(S(=O)(=O)NC3(C)CC3)cc3c2cnn3-c2nnc(C(F)F)s2)C[C@H](C)N1` [Compound A, 1-(5-(difluoromethyl)-1,3,4-thiadiazol-2-yl)-4-((3S,5S)-3,5-dimethylpiperazin-1-yl)-N-(1-methylcyclopropyl)-1H-indazole-6-sulfonamide], the IC50 is 0.37 µM with HCC1954; 3 µM in the assay on Hs 578T; 2.41 µM with BT-20; 0.85 µM in the assay with MDA-MB-231; 0.431 µM with KPL-1; 0.983 µM in the assay on BT-549. Also, the IC50 is 2.83 µM with MDA-MB-415; 2.38 µM in the assay on MCF7; 0.131 µM with SK-BR-3; 0.844 µM in the assay on CAMA-1; 2.02 µM with MDA-MB-453; 3.09 µM with T-47D.
